Source: patent US20250243180A1, “TARGETED PROTEIN DEGRADATION” (Monte Rosa Therapeutics AG, priority 2023, published 2025)

Experiments:
NEK7 [1] = test: NEK7 degradation in the brain of NHP (JESS); assay type: in vivo; details: oral 30 mg/kg for 7 days; for Average percent NEK7/β-actin in brain, relative to vehicle: 24 h after final dose
Experimental: Naïve NHP were orally administered with 7 consecutive daily dose of Compound 14 at 30 mg/kg, n=4 per dose group, 2 male and 2 female. Compound formulation was prepared on the day of administration in 0.5% methyl cellulose (4000 cps) in water and animals were fed twice a day; water was available ad libitum. Plasma collected posted dose on Day 1 and Day 7 were analyzed using a non GLP LC/MS/MS bioanalytical method to evaluate the compound concentration. Brain samples were harvested 24 h after final dose. Lysates for different brain regions (hippocampus, frontal cortex, and cerebellum) were prepared in M-PER lysis buffer and diluted at total protein concentration of 0.4 mg/mL in 0.1× sample buffer (12-230 kDa detection module; Protein Simple). The anti-NEK7 rabbit mAb (Abcam #AB133514) was used at 1:100 and anti-β-actin rabbit mAb (CST #5125) was used at 1:500. Samples were probed for NEK7 and β-actin protein levels by JESS, and quantified relative to vehicle control.
In Table 11, NEK7 protein degradation in brains of NHP following oral dosing of Compound 14 is reported. NHP received daily oral administration of 30 mg/kg of Compound 14 or vehicle for 7 days. For Compound 14 group, n=4 (two male and two female); for vehicle, n=2; samples taken 24 h post-final dose. Brains were harvested 24 h after final dose, sectioned by region (hippocampus, frontal cortex, cerebellum), and analyzed for NEK7 and beta-actin protein levels by JESS. The average percent of NEK7 was quantified by brain region and normalized to β-actin.

NEK7 [2] = test: NEK7 level in PBMC of NHP after oral dosing; assay type: in vivo, cynomolgus monkeys; details: oral 5 mg/kg for 5 days
Experimental: (§1) Non-naïve male and female non-human primate (NHP) cynomolgus monkeys were orally administered with 5 consecutive daily doses of Compound 14 at 5 mg/kg, n=2 per dose group, 1 male and 1 female. Compound formulation was prepared on the day of administration in 0.5% methyl cellulose (4000 cps) in water and animals were fasted overnight. Plasma collected post dose were analyzed using a non GLP LC/MS/MS bioanalytical method to evaluate the compound concentration. Whole blood collected post dose were processed to PBMC and were analyzed using western blot method. Plasma pharmacokinetics and PMBC pharmacodynamics were assessed longitudinally throughout dosing and following dosing cessation.
In Table 8 compound 14 induces NEK7 degradation in vivo. NEK7 protein levels were assessed in PBMC isolated from NHP after oral administration for 5 consecutive days of Compound 14 at 5 mg/kg, n=2 per dose group. NEK7 levels were normalized to β-actin, as determined by JESS, at the indicated time points. NEK7 level at pre dose was normalized to 100%. Days 10 and 15 correspond to recovery period, 5 or 10 days after drug administration, respectively.

[3] = Plasma concentration in NHP, multiple-dose study 5 mg/kg oral; assay type: in vivo, cynomolgus monkeys; details: both sexes, cynomolgus monkey
Experimental: as §1
In Table 7, plasma was isolated 6 h after final dose (dosed once or over five consecutive days), n=2. Plasma collected post dose were analyzed using a non GLP LC/MS/MS bioanalytical method to evaluate the compound concentration.

Caspase-1 activity = Caspase-1 activity in human monocyte-derived macrophages, LPS/MSU stimulation; assay type: cell-based
Experimental: Human monocytes were enriched and isolated from a buffy coat of whole blood with a RosetteSep™ Human Monocyte Enrichment Cocktail (Cat.No. 15068, StemCell) and Ficoll-Plaque PLUS (Cat.No. H8889, Sigma). Monocytes were differentiated into macrophages by treatment with 100 ng/mL M-CSF for 6 days at 37° C., 5% CO2. Differentiated macrophages were seeded overnight (50,000 cells/well) in 100 μL of medium in a 96-well white-bottom plate at 37° C., 5% CO2. Cells were treated with a concentration range of MGD or the NLRP3 inhibitor selnoflast (Cat.No. HY-132831, MedChemExpress) for 24 h prior to stimulation with monosodium urate crystals (MSU). Macrophages were stimulated with […] lipopolysaccharide (LPS) and 0.2 mg/mL MSU for 6 h. Medium of stimulated macrophages were collected and assayed for caspase-1 activity directly (Promega G9951) as well as IL-1β (Promega W6010), according to manufacturer's instructions.
(a, b) Human monocyte-derived macrophages pre-treated with a dose-response of Compound 14 or selnoflast (NLRP3 inhibitor) for 24 h and stimulated with a combination of lipopolysaccharide (LPS) and monosodium urate crystals (MSU) for 6 h prior to supernatant collection. Monocytes were isolated from eight human donors. Caspase-1 (a) and IL-1β (b) in the supernatant are measured and data are expressed as percentage relative to mean values of DMSO conditions for each donor (technical triplicates). Means of eight donors are plotted and analyzed using a four-parameter logistic regression model.

IL-1β = test: Ex vivo whole blood stimulation (LPS/nigericin) IL-1β ELISA after dosing of NHP; assay type: in vivo, cynomolgus monkeys; details: oral 5 mg/kg for 5 days
Experimental: Within 0.5 h of blood collection from animals that received vehicle or Compound 14 at 5 mg/kg, whole blood was aliquoted into two 0.25 mL aliquots. One aliquot was used as baseline, and the other as the ex vivo stimulated condition. For stimulation, whole blood was incubated with 100 ng/mL Lipopolysaccharide from Escherichia coli 0111:B4 (LPS-EB) for 3 h, followed by 10 μM nigericin for 2 h. Plasma was then isolated and concentrations of IL-1β in plasma isolated from ex vivo whole blood stimulation were measured using the IL-1β ELISA R&D Systems kit (Cat. #DY1318), with 50 μL per sample diluted with 50 μL reagent diluent/well. After reading absorbance on plate reader, standard curve and sample IL-1β levels were analyzed using 4PL method. […]
In Table 9, suppression of ex vivo inflammasome activation following degradation of NEK7 in NHP is reported. Whole blood was isolated at the indicated time points from NHP dosed orally 5 mg/kg of Compound 14 over 5 days (day 1 through 5), n=2. Days 10 and 15 correspond to recovery period, 5 or 10 days after drug administration, respectively. Whole blood was stimulated ex vivo with 100 ng/mL LPS for 3 h and 10 μM nigericin for 2 h. Plasma was isolated and IL-1β was measured by ELISA. […]

- concentration at 6 h ([3]; Day 1, 6 h post final dose): 5.4 ng/mL
- concentration at 6 h ([3]; Day 5, 6 h post final dose): 7.5 ng/mL
- IC50 (Caspase-1 activity; Homo sapiens, Macrophage, 24 h pre-treatment, LPS + MSU 6 h, eight donors): 1.6 nM
- inhibition of NLRP3-driven activation of human macrophages (Caspase-1 activity; LPS/MSU stimulation): dose-dependent inhibition
SMILES: Cc1cnc(C(C)(C)C(=O)NCc2cc(Cl)c(C3CCC(=O)NC3=O)c(Cl)c2)nc1 (stereo not drawn) [Compound 14, N-(3,5-dichloro-4-(2,6-dioxopiperidin-3-yl)benzyl)-2-methyl-2-(5-methylpyrimidin-2-yl)-propanamide]
- degradation of NEK7 across three different brain regions (NEK7 [1]): around 80%
- Average percent NEK7/β-actin in brain, relative to vehicle (NEK7 [1]; Cerebellum): 18.2%
- Average percent NEK7/β-actin in brain, relative to vehicle (NEK7 [1]; Frontal Cortex): 20.3%
- Average percent NEK7/β-actin in brain, relative to vehicle (NEK7 [1]; Hippocampus): 21.3%
- Average percent NEK7/β-actin in PBMC, relative to predose (NEK7 [2]; Day 1, 6 h): 56%
- Average percent NEK7/β-actin in PBMC, relative to predose (NEK7 [2]; Day 1, 24 h): 44%
- Average percent NEK7/β-actin in PBMC, relative to predose (NEK7 [2]; Day 5, 6 h): 27%
- Average percent NEK7/β-actin in PBMC, relative to predose (NEK7 [2]; Day 5, 24 h): 15%
- Average percent NEK7/β-actin in PBMC, relative to predose (NEK7 [2]; Day 10, 24 h (recovery)): 45%
- Average percent NEK7/β-actin in PBMC, relative to predose (NEK7 [2]; Day 15, 24 h (recovery)): 141%
- Caspase-1 activity Imax (Caspase-1 activity; 24 h pre-treatment, LPS + MSU 6 h, eight donors): 81%
- Percent IL-1β relative to predose (IL-1β; Day 1, 6 h): 1%
- Percent IL-1β relative to predose (IL-1β; Day 1, 24 h): 45%
- Percent IL-1β relative to predose (IL-1β; Day 5, 6 h): 0%
- Percent IL-1β relative to predose (IL-1β; Day 5, 24 h): 78%
- Percent IL-1β relative to predose (IL-1β; Day 10, 24 h (recovery)): 91.5%
- Percent IL-1β relative to predose (IL-1β; Day 15, 24 h (recovery)): 141%
